Data reported in patent US20250041282A1, “METHOD FOR TREATING INFLAMMATORY PULMONARY DISEASE” (FU JEN CATHOLIC UNIVERSITY, priority 2021, published 2025).

What was measured:
[1] = system: RAW264.7 macrophages; assay: ELISA of cytokines in cell culture media; format: cell-based, mouse; details: pretreated 30 min, 100 ng/ml LPS 24 h; FIG. 5A/5B
Description: RANTES (RayBiotech), IL-1β and IL-6 (eBioscience, San Diego, CA, USA) concentrations in cell culture media and mouse serum were measured using ELISA kits according to the manufacturer's instructions. The plates were measured at […] using an Epoch microplate spectrophotometer (BioTek Instruments, Winooski, VT, USA). The concentrations of RANTES, IL-1β and IL-6 in the samples were determined by standard curves.
For identifying the potential signaling pathways which regulate the secretion of IL-6 and RANTES induced by LPS stimulation, RAW264.7 macrophages were pretreated with various kinase inhibitors for 30 min and then stimulated with/without 100 ng/ml LPS for 24 h; the cell culture media was harvested for ELISA assay. […] (FIG. 6A). To investigate whether FJU-C28 could mediate the transcriptional activity of NF-κB (p65), the translocation of NF-κB p65 was examined in LPS-stimulated macrophages.

[2] = system: RAW264.7 macrophages; assay: Western blotting of LPS-stimulated macrophage lysates; format: cell-based, mouse; details: LPS-induced RAW264.7; FIG. 6D
Description: In brief, cell lysate was separated by 10% SDS-PAGE and transferred to a PVDF membrane (Hybond™-P, Amersham, Piscataway, NJ, USA). The blots were probed with anti-p38 (Catalogue Number: 8690P), anti-p-p38 (Thr180/Tyr182; Catalogue Number: 4511P), anti-ERK44/42 (Catalogue Number: 4695P), anti-p-ERK44/42 (Thr202/Tyr204; Catalogue Number: 4370P), anti-JNK (Catalogue Number: 9258P), anti-p-JNK (Thr183/Tyr185; Catalogue Number: 4668P), anti-p65 (Catalogue Number: 8242S), anti-STAT3 (Catalogue Number: 12640S), anti-p-STAT3 (Tyr705; Catalogue Number: 9145S) and anti-RANTES (Catalogue Number: 2989S) antibodies were provided by Cell Signaling Technology, Inc. (Danvers, MA, USA). Anti-Lamin A/C (Catalogue Number: 101127) antibodies were obtained from GeneTex, Inc. (San Antonio, TX, USA). Anti-β-Actin (Catalogue Number: SC-47778) and anti-COX2 (Catalogue Number: SC-1746) antibody was obtained from Santa Cruz Biotechnology, Inc. (Dallas, Texas, USA). The anti-iNOS (Catalog Number: 610329) antibody was obtained from BD transduction Lab. (San Jose, CA, USA). Bound antibodies were visualized by […] staining (Western Lighting Plus ECL; PerkinElmer, Wellesley, MA, USA) with autoradiography using FUJI Medical X-ray film (Fuji Corporation, Kofu, Yamanashi, Japan) or a MultiGel-21 multifunctional imaging system (TOPBIO, New Taipei, Taiwan). The intensity of the western blot bands was quantified by ImageJ software. The quantitative immunoblot data were normalized to the internal control protein and are expressed as the relative ratio of the treatment group to the control. The data represent the mean±S.D. of at least three independent experiments.

SMILES	LPS-induced expression of IL-6 (ELISA), kinase inhibitors [1]	LPS-induced expression of RANTES (ELISA), kinase inhibitors [1]	LPS-induced phosphorylation of STAT3 [2]
Cc1ccc(S(=O)(=O)/C=C/C#N)cc1 [BAY11-7082]	suppressed	suppressed	–
CCOC(=O)C1=CCCC[C@H]1S(=O)(=O)Nc1ccc(F)cc1Cl [CLI-095]	suppressed	suppressed	–
COc1cccc(-c2cc(=O)c3ccccc3o2)c1N [PD98059]	not	–	slightly suppressed
C[S+]([O-])c1ccc(-c2nc(-c3ccncc3)c(-c3ccc(F)cc3)[nH]2)cc1 (stereo not drawn) [SB203580]	suppressed	suppressed	inhibited
